# Test system: ZIKV
# Assay: ZIKV reporter virus-based antiviral screening on Huh7 cells
# Format: cell-based, Zika virus
# Conditions: Huh7 cells infected with recombinant luciferase reporter ZIKV (MOI about 0.1), 48 hrs, luciferase signal; read-out: EC50
# Outline: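 Huh7 cells in 2% FBS assay medium infected at MOI about 0.1 with Renilla or Nano luciferase ZIKV premixed with nine-point compound dilutions, 48 hrs at 37° C. Luciferase signal normalized to DMSO controls as 100%; viability optionally by CellTiter-Glo with Rlu virus.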
row,Compound,EC50 [nM]
1,"methyl ((S)-1-((S)-2-(5-(7-(4-chloro-2-((S)-1-((methoxycarbonyl)-L-valyl)pyrrolidin-2-yl)-1H-imidazol-5-yl)-5,10-dihydrochromeno[5,4,3-cde]chromen-2-yl)-4-isopropyl-1H-imidazol-2-yl)pyrrolidin-1-yl)-3-methyl-1-oxobutan-2-yl)carbamate [Compound 77]",13.6
2,"COC(=O)N[C@H](C(=O)N1C[C@@H](F)C[C@H]1c1nc(Cl)c(-c2cc3c4c(c2)OCc2cc(-c5[nH]c([C@@H]6C[C@H](F)CN6C(=O)[C@@H](NC(=O)OC)C(C)(C)C(F)(F)F)nc5Cl)cc(c2-4)OC3)[nH]1)C(C)(C)C(F)(F)F [Compound 52, dimethyl ((2S,2′S)-((3S,3′S,5S,5′S)-((5,10-dihydrochromeno[5,4,3-cde]chromene-2,7-diyl)bis(4-chloro-1H-imidazole-5,2-diyl))bis(3-fluoropyrrolidine-5,1-diyl))bis(4,4,4-trifluoro-3,3-dimethyl-1-oxobutane-l,2-diyl))dicarbamate]",103

# Same assay, conditions: Zika virus, Huh-7, 48 h, Huh7 cells infected with recombinant luciferase reporter ZIKV (MOI about 0.1), luciferase signal
row,Compound,EC50 [nM]
1,"COC(=O)N[C@H](C(=O)N1[C@H](C)CC[C@H]1c1nc(Cl)c(-c2cc3c4c(c2)OCc2cc(-c5[nH]c([C@@H]6CC[C@@H](C)N6C(=O)[C@@H](NC(=O)OC)C(C)C)nc5Cl)cc(c2-4)OC3)[nH]1)C(C)C [Compound 62, dimethyl ((2S,2′S)-((2R,2′R,5S,5′S)-((5,10-dihydrochromeno[5,4,3-cde]chromene-2,7-diyl)bis(4-chloro-1H-imidazole-5,2-diyl))bis(2-methylpyrrolidine-5,1-diyl))bis(3-methyl-1-oxobutane-1,2-diyl))dicarbamate]",17.7
2,"COC(=O)N[C@H](C(=O)N1[C@H](c2nc(Cl)c(-c3cc4c5c(c3)OCc3cc(-c6[nH]c([C@@H]7C[C@@H]8CCC[C@@H]8N7C(=O)[C@@H](NC(=O)OC)C(C)(C)C(F)(F)F)nc6Cl)cc(c3-5)OC4)[nH]2)C[C@@H]2CCC[C@@H]21)C(C)(C)C(F)(F)F [Compound 35, dimethyl ((2S,2′S)-((2S,2′S,3aS,3a′S,6aS,6a′S)-((5,10-dihydrochromeno[5,4,3-cde]chromene-2,7-diyl)bis(4-chloro-1H-imidazole-5,2-diyl))bis(hexahydrocyclopenta[b]pyrrole-2,1(2H)-diyl))bis(4,4,4-trifluoro-3,3-dimethyl-1-oxobutane-1,2-diyl))dicarbamate]",4.5
3,"COC(=O)N[C@@H](C(=O)N1CC2(CC2)C[C@H]1c1nc(Cl)c(-c2cc3c4c(c2)OCc2cc(-c5[nH]c([C@@H]6CC7(CC7)CN6C(=O)[C@H](NC(=O)OC)C(C)C)nc5C(C)C)cc(c2-4)OC3)[nH]1)C(C)C [Compound 81, methyl ((R)-1-((S)-6-(5-(7-(4-chloro-2-((S)-5-((methoxycarbonyl)-D-valyl)-5-azaspiro[2.4]heptan-6-yl)-1H-imidazol-5-yl)-5,10-dihydrochromeno[5,4,3-cde]chromen-2-yl)-4-isopropyl-1H-imidazol-2-yl)-5-azaspiro[2.4]heptan-5-yl)-3-methyl-1-oxobutan-2-yl)carbamate]",> 1000
4,"CC[C@H](C)[C@H](NC(=O)OC)C(=O)N1CCC[C@H]1c1nc(Br)c(-c2cc3c4c(c2)OCc2cc(-c5[nH]c([C@@H]6CCCN6C(=O)[C@@H](NC(=O)OC)[C@@H](C)CC)nc5Br)cc(c2-4)OC3)[nH]1 [Compound 24, dimethyl ((2S,2′S,3S,3′S)-((2S,2′S)-((5,10-dihydrochromeno[5,4,3-cde]chromene-2,7-diyl)bis(4-bromo-1H-imidazole-5,2-diyl))bis(pyrrolidine-2,1-diyl))bis(3-methyl-1-oxopentane-1,2-diyl))dicarbamate]",2.2
5,"COC(=O)N[C@H](C(=O)N1CCCC[C@H]1c1nc(Cl)c(-c2cc3c4c(c2)OCc2cc(-c5[nH]c([C@@H]6CCCCN6C(=O)[C@@H](NC(=O)OC)C(C)C)nc5Cl)cc(c2-4)OC3)[nH]1)C(C)C [Compound 13, dimethyl ((2S,2′S)-((2S,2′S)-((5,10-dihydrochromeno[5,4,3-cde]chromene-2,7-diyl)bis(4-chloro-1H-imidazole-5,2-diyl))bis(piperidine-2,1-diyl))bis(3-methyl-1-oxobutane-1,2-diyl))dicarbamate]",4.5
6,"C=C(C)c1nc([C@@H]2C[C@H](C)CN2C(=O)[C@@H](NC(=O)OC)C(C)C)[nH]c1-c1cc2c3c(c1)OCc1cc(-c4[nH]c([C@@H]5C[C@H](C)CN5C(=O)[C@@H](NC(=O)OC)C(C)C)nc4C(=C)C)cc(c1-3)OC2 [Compound 71, dimethyl ((2S,2′S)-((3S,3′S,5S,5′S)-((5,10-dihydrochromeno[5,4,3-cde]chromene-2,7-diyl)bis(4-(prop-1-en-2-yl)-1H-imidazole-5,2-diyl))bis(3-methylpyrrolidine-5,1-diyl))bis(3-methyl-1-oxobutane-1,2-diyl))dicarbamate]",36.4
7,"COC(=O)N[C@H](C(=O)N1[C@H](c2nc(Cl)c(-c3cc4c5c(c3)OCc3cc(-c6[nH]c([C@@H]7C[C@@H]8CCCC[C@@H]8N7C(=O)[C@@H](NC(=O)OC)C(C)C)nc6Cl)cc(c3-5)OC4)[nH]2)C[C@@H]2CCCC[C@@H]21)C(C)C [Compound 37, dimethyl ((2S,2′S)-((2S,2′S,3aS,3a′S,7aS,7a′S)-((5,10-dihydrochromeno[5,4,3-cde]chromene-2,7-diyl)bis(4-chloro-1H-imidazole-5,2-diyl))bis(octahydro-1H-indole-2,1-diyl))bis(3-methyl-1-oxobutane-1,2-diyl))dicarbamate]",5.7
